Source: patent publication US7700584B2 (Hangzhou Minsheng Pharmaceuticals Co., Ltd., priority 2004, dated 2010)
Converted amounts (≈) assume the structure as drawn. Like-named read-outs stand apart in the source and are kept apart here.

Assays:
[1] = tested on: mouse grafted sarcoma S-180; assay: Activity against mouse grafted sarcoma S-180; format: in vivo, Kunming mice; settings: for Inhibition rate (%) / Tumor weight: 30 mg/kg i.v., 6 doses; for Tumor weight: X ± SD, n = 10
Procedure: (1) Experimental animals: Kunming mice weighting 18-22 g;
(2) 100 mg/ml solutions of the 3 compounds were prepared, respectively, in water for injection (1% surface surfactant was added into the solution of Compound 6). 5-FU and camptothecine, 30 mg/kg and 1 mg/kg, respectively, were used as positive controls;
3. Route of Administration: Intravenous Injection.
(§1) The experiments were performed according to “Guideline for New Drugs (Western medicines) in Pre-clinical Stages” issued by Bureau of Drug Policy & Administration of the People's Republic of China, and the relevant methods in “Methodology of Pharmaceutical Experiments”, Xu Shuyun et al. ed. 120 male Kunming mice weighting […] were allowed to grow 3 days. No abnormality was observed. The mice were routinely inoculated in oxter with mouse sarcoma S-180, and weighted 4 hrs. after inoculation. The mice were randomly divided into 12 groups, 10 mice/group. Group 1 was given 0.3 ml of physiological saline as negative control; Group 2 was given 5-FU as positive control, 0.6 mg/mouse; Group 3 was given hydroxycamptothecine as positive control, 0.02 mg/mouse. Groups 4, 5 and 6 were injected with 10% Compound 6, 0.4 ml/mouse, 0.2 ml/mouse, and 0.1 ml/mouse, respectively. Groups 7, 8 and 9 were injected with 10% Compound 8, 0.4 ml/mouse, 0.2 ml/mouse, and 0.1 ml/mouse, respectively. Groups 10, 11, and 12 were injected with 10% Compound 20, 0.4 ml/mouse, 0.2 ml/mouse, and 0.1 ml/mouse, respectively. The tested compounds were administered on the next day after inoculation, once a day on alternate days, 6 doses totally administered. On the next day after the end dose, the mice were weighed and sacrificed. After the tumor was excised, body weight and tumor weight were recorded. The tumor inhibition rate was calculated based on the following formula: [(average tumor weight of the control groups−average tumor weight of the experimental groups)/average tumor weight of the control groups]×100%. The data was processed statistically. The above experiments were repeated three times.

[2] = tested on: MCF-7 human mammary adenocarcinoma; assay: In vitro anti-tumor IC50 (MTT), MCF-7; format: cell-based; settings: Table 4
Procedure: (§2) (1) Single cell suspension was seeded into 96-well plates (the cells was diluted in the PRMI-1640 minimum medium to 3×10^4 cells/ml, […] diluted cells/well). […] The experiments were performed in quadruplicate.
(§3) (2) The medium was removed. Solutions of the anti-tumor agents (50 compounds) were prepared in a freshly prepared medium at serial concentrations. […] of the solution was added into each well. Incubation was continued for 48 hours.
(§4) (3) 20 ug of 2 mg/ml MTT was added into each well, and incubated for 4 hours.
(§5) (4) The medium was removed from the well. The microplates were swiftly turned down to throw-off the medium. […] of DMSO was added into each well, and vortexed at room temperature for 10 minutes.
(§6) (5) OD value (λ=570 nm) was measured with an Enzyme-Linked Detector.
(§7) (6) The graph of cell vitality was plotted, and IC50 was calculated.

mouse lung cancer Lewis = assay: Activity against mouse grafted lung cancer Lewis; format: in vivo, Kunming mice; settings: Lewis, 30 mg/kg; for Tumor weight: X ± SD, n = 10
Procedure: as §1
(§8) The experiments were identical with the experiments for activity against mouse grafted sarcoma S-180, except the following:
(1) the tumor cell line inoculated was mouse lung cancer Lewis;
(2) Compound 6, Compound 8 and Compound 21 were not tested for their activity;
(3) the mice were divided into six groups.

[3] = tested on: mouse grafted liver cancer H22; assay: Activity against mouse grafted liver cancer H22; format: in vivo, Kunming mice; settings: for Tumor weight: X ± SD, n = 10
Procedure: as §1
The experiments were identical with the experiments for activity against mouse grafted sarcoma S-180, except that the cell line inoculated was liver cancer H22. The experiments were repeated three times.

[4] = tested on: Hela human cervical carcinoma; assay: In vitro anti-tumor IC50 (MTT), Hela; format: cell-based; settings: Table 4
Procedure: as §2, §3, §4, §5, §6, §7

[5] = tested on: HL-60 human promyelocytic leukemia; assay: In vitro anti-tumor IC50 (MTT), HL-60; format: cell-based; settings: Table 4
Procedure: as §2, §3, §4, §5, §6, §7

[6] = tested on: mouse grafted uterine cervix cancer U14; assay: Activity against mouse grafted uterine cervix cancer U14; format: in vivo, Kunming mice; settings: 30 mg/kg; for Tumor weight: X ± SD, n = 10
Procedure: as §1, §8
(1) the tumor cell line inoculated was mouse grafted uterine cervix cancer U14;
(2) all the mice were female.

[7] = tested on: Bel-7402 human hepatic carcinoma; assay: In vitro anti-tumor IC50 (MTT), Bel-7402; format: cell-based; settings: Table 4
Procedure: as §2, §3, §4, §5, §6, §7

[8] = tested on: A-549 human lung adenocarcinoma; assay: In vitro anti-tumor IC50 (MTT), A-549; format: cell-based; settings: Table 4
Procedure: as §2, §3, §4, §5, §6, §7

[9] = tested on: A-549 human lung adenocarcinoma; assay: In vitro inhibition rate to tumor cells (MTT), A-549; format: cell-based; settings: Homo sapiens, A549, 50 μg/ml, read-out: inhibition rate, Results (%) A-549
[10] = tested on: MCF-7 human mammary adenocarcinoma; assay: In vitro inhibition rate to tumor cells (MTT), MCF-7; format: cell-based; settings: Homo sapiens, MCF7, 50 μg/ml, read-out: inhibition rate, Results (%) MCF-7
[11] = tested on: Hela human cervical carcinoma; assay: In vitro inhibition rate to tumor cells (MTT), Hela; format: cell-based; settings: Homo sapiens, HeLa, 50 μg/ml, read-out: inhibition rate, Results (%) Hela
[12] = tested on: LLC mouse Lewis lung carcinoma; assay: In vitro inhibition rate to tumor cells (MTT), LLC; format: cell-based; settings: Mus musculus, Lewis lung carcinoma, 50 μg/ml
[13] = tested on: SMMC-7721 human hepatic carcinoma; assay: In vitro inhibition rate to tumor cells (MTT), SMMC-7721; format: cell-based; settings: Homo sapiens, SMMC-7721, 50 μg/ml, read-out: inhibition rate, Results (%) SMMC-7721
[14] = tested on: U-937 human histocytic lymphoma; assay: In vitro inhibition rate to tumor cells (MTT), U-937; format: cell-based; settings: Homo sapiens, U-937, 50 μg/ml, read-out: inhibition rate, Results (%) U-937
[15] = tested on: Bel-7402 human hepatic carcinoma; assay: In vitro inhibition rate to tumor cells (MTT), Bel-7402; format: cell-based; settings: Homo sapiens, Bel-7402, 50 μg/ml, read-out: inhibition rate, Results (%) Bel-7402
[16] = Solubility in water (observation); format: physicochemical
[17] = tested on: HL-60 human promyelocytic leukemia; assay: In vitro inhibition rate to tumor cells (MTT), HL-60; format: cell-based; settings: Homo sapiens, HL-60, 50 μg/ml, read-out: inhibition rate, Results (%) HL-60
[18] = tested on: influenza A virus (Jifang 90-15); assay: microbe, parasite or virus in culture; format: cell-based
MDCK (dog kidney) cells = assay: Toxicity TC50 of the samples in MDCK cells (influenza screening); settings: concentration of 50% toxicity
[19] = tested on: influenza B virus (Jifang 97-13); assay: Screening for the activity against influenza B virus (CPE in MDCK cells)
[20] = H22, first experiment, 30 mg/kg i.v., 6 doses
[21] = H22, second experiment, 30 mg/kg
[22] = H22, third experiment, 30 mg/kg

## O=c1[nH]cc(F)c(=O)[nH]1 [Compound 5-FU, reference compound]
[1]; S-180, first experiment
  Inhibition rate (%): 71.2%
  Tumor weight: 0.72 ± 0.23 g
[1]; S-180, second experiment
  Inhibition rate (%): 69.6%
  Tumor weight: 0.79 ± 0.33 g
[1]; mouse, in vivo, iv, 30 mg/kg
  Average weight (g)-after administration: 22.9 g
  Average weight(g)-after administration: 21.9 g
[2]
  IC50 (ug/ml) against tumor cell lines, MCF: 1.53 µg/mL (≈ 11.8 µM)
Mouse lung cancer Lewis; first experiment
  Inhibition rate (%): 55.0%
  Tumor weight: 1.34 ± 0.31 g
Mouse lung cancer Lewis; second experiment
  Inhibition rate (%): 54.3%
  Tumor weight: 1.10 ± 0.31 g
Mouse lung cancer Lewis; third experiment
  Inhibition rate (%): 53.7%
  Tumor weight: 1.25 ± 0.31 g
[3]; [20]
  Inhibition rate (%): 60.0%
  Tumor weight: 1.21 ± 0.31 g
[3]; [21]
  Inhibition rate (%): 60.5%
  Tumor weight: 1.19 ± 0.31 g
[3]; [22]
  Inhibition rate (%): 64.2%
  Tumor weight: 1.08 ± 0.31 g
[3]; mouse, in vivo, 30 mg/kg
  Average weight (g)-after administration: 20.3 g
  Average weight(g)-after administration: 21.3 g
[3]; mouse, in vivo, iv, 30 mg/kg
  Average weight(g)-after administration: 22.3 g
[4]
  IC50 (ug/ml) against tumor cell lines, Hela: 2.86 µg/mL (≈ 22 µM)
[5]
  IC50 (ug/ml) against tumor cell lines, HL-60: 0.51 µg/mL (≈ 3.92 µM)
[6]; U14, first experiment
  Inhibition rate (%): 40.2%
  Tumor weight: 2.10 ± 0.31 g
[6]; U14, second experiment
  Inhibition rate (%): 42.6%
  Tumor weight: 1.95 ± 0.31 g
[6]; U14, third experiment
  Inhibition rate (%): 42.0%
  Tumor weight: 2.10 ± 0.31 g
[6]; mouse, in vivo
  Average weight (g)-after administration: 21.0 g
  Average weight(g)-after administration: 21.3 g
[7]
  IC50 (ug/ml) against tumor cell lines, Bel-7402: 0.54 µg/mL (≈ 4.15 µM)
[8]
  IC50 (ug/ml) against tumor cell lines, A-549: 0.7 µg/mL (≈ 5.38 µM)

## CC(C)C1CC23OC1(O)CC(O)(CO)C2CCC3C (centres unmarked) [Compound 32, Curcumol dihydroxy compound]
[9]; Table 1
  inhibition at 50 µg/mL: -12.5%
[9]; Table 2 (repeated screening)
  inhibition at 50 µg/mL: -12.5%
[10]; Table 1
  inhibition at 50 µg/mL: 65.1%
[10]; Table 2 (repeated screening)
  inhibition at 50 µg/mL: 65%
[11]; Table 1
  inhibition at 50 µg/mL: 84.3%
[11]; Table 2 (repeated screening)
  inhibition at 50 µg/mL: 80.1%
[12]; Table 1
  inhibition at 50 µg/mL: 7.27%
[12]; Table 2 (repeated screening)
  inhibition at 50 µg/mL: 7.05%
[13]; Table 1
  inhibition at 50 µg/mL: 80%
[13]; Table 2 (repeated screening)
  inhibition at 50 µg/mL: 82.6%
[14]; Table 1
  inhibition at 50 µg/mL: 65.3%
[14]; Table 2 (repeated screening)
  inhibition at 50 µg/mL: 67.2%
[15]; Table 1
  inhibition at 50 µg/mL: 4.23%
[15]; Table 2 (repeated screening)
  inhibition at 50 µg/mL: 4.23%
[16]
  solubility in water (in words): very big
[17]; Table 1
  inhibition at 50 µg/mL: 14%
[17]; Table 2 (repeated screening)
  inhibition at 50 µg/mL: 13.4%

## NC(=O)c1ncn([C@@H]2O[C@H](CO)[C@@H](O)[C@H]2O)n1 [RBV]
[18]; CPE in MDCK cells
  IC50, influenza A virus: 2.06 µg/mL (≈ 8.44 µM)
[18]; SI = TC50/IC50
  SI, influenza A virus: 970.87
MDCK (dog kidney) cells
  TC50: >2000 µg/mL
[19]; CPE in MDCK cells
  IC50, influenza B virus: 6.17 µg/mL (≈ 25.3 µM)
[19]; SI = TC50/IC50
  SI, influenza B virus: 324.15
